PMC7281280, “Is the Way to Fight Cancer Paved with Gold? Metal-Based Carbene Complexes with Multiple and Fascinating Biological Features” (Pharmaceuticals, 2020)
Like-named read-outs stand apart in the source and are kept apart here.

What was measured:
[1] = test system: Hek-293 human embryonic kidney epithelial cells; assay: MTT cell viability, normal Hek-293; type: cell-based; details: for IC50: normal cells, MTT, 72 h, mean ± SD, read-out: IC50 Hek-293
Procedure: (§1) The six cell lines used in this work (MCF-7, MDA-MB-231, HeLa, […], MCF-10A and Hek-293) were purchased from American Type Culture Collection (ATCC, Manassas, VA, USA). MCF-7 human breast cancer cells, estrogen receptor (ER)-positive, were maintained in Dulbecco’s modified Eagle’s medium/nutrient mixture Ham F-12 (DMEM/F12), supplemented with 10% fetal bovine serum (FBS) and 100 U mL^−1 penicillin/streptomycin. MCF-10A human mammary epithelial cells, were cultured in DMEM/F12 medium, supplemented with 5% horse serum (HS, Thermo Fisher Scientific, Milan, Italy), 100 U mL^−1 penicillin/streptomycin, […] hydrocortisone, 20 ng mL^−1 human epidermal growth factor (hEGF), […] insulin, and […] cholera enterotoxin (Sigma–Aldrich, Milan, Italy). MDA-MB-231 human breast cancer cells, known as triple-negative cells (i.e., not overexpressing human epidermal growth factor receptor 2 (HER2), estrogen and progesterone receptors), were cultured in DMEM/F12 supplemented with 5% FBS, 1% L-glutamine and 100 U mL^−1 penicillin/streptomycin. HeLa human epithelial cervix carcinoma cells, estrogen receptor (ER)-negative, and […] human endometrial adenocarcinoma cells, estrogen receptor (ER)-positive, were maintained in minimum essential Eagle’s Medium (MEM), supplemented with 10% FBS, 1% L-glutamine, 100 U mL^−1 penicillin/streptomycin and 1% Non-Essential Amino Acids (NEAA). Hek-293 human embryonic kidney epithelial cells were cultured in DMEM high glucose (4.5 g L^−1), supplemented with 10% FBS, 1% L-glutamine and 100 U mL^–1 penicillin/streptomycin. Cells were maintained at 37 °C in a humidified atmosphere of 95% air and 5% CO2 and periodically screened for contamination.
(§2) Cell viability has been determined using the 3-(4,5-dimethylthiazol-2-y1)-2,5-diphenyltetrazolium bromide (MTT, Sigma–Aldrich, Milan, Italy) assay. Cells have been seeded on 48-well plates and grown in complete medium. Before being treated, cells have been starved in serum free medium for 24 h for allowing cell cycle synchronization. […] Data are representative of three independent experiments; standard deviations (SD) have been shown.

[2] = test system: HeLa human epithelial cervix carcinoma cells; assay: MTT cell viability, HeLa; type: cell-based; details: 72 h, mean ± SD
Procedure: as §1, §2

[3] = test system: MDA-MB-231 human breast cancer cells; assay: MTT cell viability, MDA-MB-231; type: cell-based; details: mean ± SD
Procedure: as §1, §2

[4] = test system: MCF-7 human breast cancer cells; assay: MTT cell viability, MCF-7; type: cell-based; details: mean ± SD
Procedure: as §1, §2

[5] = test system: ISHIKAWA human endometrial adenocarcinoma cells; assay: MTT cell viability, […]; type: cell-based; details: 72 h, mean ± SD
Procedure: as §1, §2

[6] = test system: MCF-10A human mammary epithelial cells; assay: MTT cell viability, normal MCF-10A; type: cell-based; details: 72 h, mean ± SD
Procedure: as §1, §2

[7] = test system: MDA-MB-231 cells; assay: Immunofluorescence of microtubules, MDA-MB-231; type: cell-based, human; details: at IC50 value, 24 h
Procedure: (§3) Cells were grown on glass coverslips in full media, then serum-deprived for 24 h and exposed to compounds for 24 h (concentration equal to its IC50 value). Then, the cells after PBS-washed, were fixed with cold methanol (15 min/−20 °C) and incubated with primary antibody, diluted in blocking solution (4 °C/overnight), as previously described. The mouse anti-β-Actin (69879) and the rabbit anti-β tubulin (9104) were purchased from Santa Cruz Biotechnology and used at 1:100 dilution. Coverslips were then washed 3 times with PBS, then fixed cells were incubated with the secondary antibody Alexa Fluor® 568 conjugate goat-anti-mouse and Alexa Fluor® 488 conjugate goat-anti-rabbit (1:500, Thermo Fisher Scientific, Waltham, MA, USA). Nuclei were stained using DAPI (Sigma–Aldrich, Mila, Italy) for 10 min at a concentration of 0.2 μg/mL then washed 3 times with PBS. Fluorescence was detected using a fluorescence microscope (Leica DM 6000). LAS-X software was used to acquire and process all images.
Figure 5 Immunofluorescence studies. […] Panels A: DAPI, excitation/emission wavelength 350 nm/460 nm; panels B: β-tubulin (Alexa Fluor® 488) excitation/emission wavelength 490 nm/515 nm; panels C show a merge. Representative fields are shown.

[8] = test system: HeLa cells; assay: Immunofluorescence of microtubules, HeLa; type: cell-based, human; details: at IC50 value, 24 h
Procedure: as §3
Figure 6 Immunofluorescence studies. HeLa cells were treated with AuL4, Vinblastine, Paclitaxel (used at their IC50 values) or with a vehicle (CTRL) for 24 h. After treatment, the cells were methanol fixed, incubated with primary and secondary antibodies, stained with DAPI and observed and imaged under the inverted fluorescence microscope at 20× magnification (see Materials and methods). […] Panels A: DAPI, excitation/emission wavelength 350 nm/460 nm; panels B: β-tubulin (Alexa Fluor® 488) excitation/emission wavelength 490 nm/515 nm; panels C show a merge. Representative fields are shown.

[9] = test system: tubulin; assay: In vitro tubulin-polymerization assay (turbidity at 350 nm); type: biochemical; details: 10 µM; for final optical density value at 350 nm (OD350): vehicle (DMSO) about 0.43
Procedure: Tubulin-polymerization inihibition was measured using in vitro Tubulin-Polymerization Assay Kit purchased fromEMD Millipore Corporation. Polymerization reactions occur in 70 µL final volumes, of which 60 µL is the 60 µM tubulin in 1 × PB-GTP and 10 µL is the test substance dissolved in 1 × PB-GTP. […] These reactives were combined in 96-well plate on ice. After the plate was transferred into the spectrophotometer pre-warmed at 37 °C and the turbidity variation was measured every 30 s at 350 nm for 90 min. The plate was shaked for 10 s before each measurement. Turbidity (absorbance) readings were used to calculate the extent of polymerization [% inhibition = (1−A350 sample/A350 control) × 100].
Figure 4 Tubulin-polymerization assay. […] Two positive control molecules, Paclitaxel and Vinblastine, were used as tubulin-stabilizing and tubulin-destabilizing agents, respectively. DMSO was used as a negative control. Assembly of tubulin into microtubules was determined by measuring the turbidity at 350 nm for 3600 s at 37 °C. All the compounds were used at a concentration of 10 μM.

[10] = test system: MDA-MB-231 cells; assay: Detection of intracellular ROS (DCF-DA); type: cell-based, human; details: fluorescence microscopy
Procedure: We used 2,7-dichlorofluorescin diacetate (DCF-DA) as a fluorometric probe for ROS detection and their production was examined under an inverted fluorescence microscope, as already reported.
Cells were grown on glass coverslips until the treatment with compound or menadione (used as positive control) (Sigma–Aldrich, Milan, Italy). Then, cells were incubated with 10 μM 2′-7′-Dichlorofluorescein diacetate (Sigma–Aldrich, Milan, Italy) for 40 min at 37 °C in a 5% CO2 incubator, as previously described. Then, DAPI (0.2 μg mL^−1) counterstain was performed for 10 min at room temperature, in the dark. Cells were then washed three times with cold PBS, adding one drop of mounting solution, then they were observed and imaged under a fluorescence microscope (Leica DM6000; 20× magnification) with excitation/emission wavelength maxima of 490 nm/515 nm (DCF) or 350 nm/460 nm (DAPI). Images are representative of three independent experiments.
Images were acquired at 20× magnification. […] Fields are representative of three separate experiments.

Row | Structure (SMILES) | IC50 [1] [µM] | IC50 [2] [µM] | IC50 ([3]; 72 h) [µM] | IC50 ([4]; 72 h) [µM] | IC50 [5] [µM] | IC50 [6] [µM] | also measured
1 | OC(Cn1ccn(CC(O)c2ccccc2)[c]1=[AuH]=[c]1n(CC(O)c2ccccc2)ccn1CC(O)c1ccccc1)c1ccccc1.[Cl][AuH][Cl] (stereo not drawn) [AuL6] | > 200 | 98.6 ± 1.2 | 53.7 ± 0.7 | 9.38 ± 0.2 | 12.6 ± 0.3 | 158.8 ± 1 | 
2 | O=c1c(O)c(-c2ccc(O)c(O)c2)oc2cc(O)cc(O)c12 [Quercetin, reference compound] |  |  |  |  |  |  | increase of the Hek-293 cells viability vs AuL7 alone ([1]; pre-treatment for 4 h with Quercetin (at 50 μM), then AuL7): about 1.5 fold
3 | OCc1ccc(-n2ccn(CC(O)c3ccccc3)[c]2=[Ag][Br])cc1 (stereo not drawn) [AgL5] | > 200 | > 200 | > 200 | > 200 | > 200 | > 200 | 
4 | CC[C@]1(O)C[C@@H]2CN(CCc3c([nH]c4ccccc34)[C@@](C(=O)OC)(c3cc4c(cc3OC)N(C)[C@H]3[C@@](O)(C(=O)OC)[C@H](OC(C)=O)[C@]5(CC)C=CCN6CC[C@]43[C@@H]65)C2)C1 [vinblastine, reference compound] |  |  |  |  |  |  | effect on microtubule network, MDA-MB-231 [7]: microtubules disorganization; effect on microtubule network, HeLa [8]: microtubules disorganization; effect on tubulin-polymerization reaction [9]: tubulin-polymerization inhibition; time to reach the steady state of polymerization curve ([9]; 37 °C): about 40 min; final optical density value at 350 nm (OD350) ([9]; 37 °C): less than the half of the vehicle reaction
5 | N.N.[Cl][Pt][Cl] [Cis-platin, Cisplatin, reference compound] | 16.8 ± 0.4 | 15.7 ± 1.1 | 28.7 ± 1 | 35.8 ± 1.3 | 15.1 ± 0.8 | 81.3 ± 1.2 | 
6 | C[n+]1ccn(CC(O)c2ccccc2)[c]1[Ag-][c]1n(CC(O)c2ccccc2)cc[n+]1C.[I][Ag-][I] (racemic) [AgL3] |  |  |  |  |  |  | IC50 MDA-MB-231 ([3]; 72 h): completely inactive
7 | CC1=CC(=O)c2ccccc2C1=O [menadione, reference compound] |  |  |  |  |  |  | ROS production (DCF green fluorescence) [10]: increased ROS production
8 | OCc1ccc(-n2cc[n+](CC(O)c3ccccc3)[c]2[Au-][Br])cc1 (racemic) [AuL5] | > 200 | 44.5 ± 0.9 | 31.7 ± 0.8 | 18.2 ± 0.5 | 54.9 ± 1 | > 200 | 
9 | OCc1ccc(-[n+]2ccn(CC(O)c3ccccc3)c2)cc1 (stereo not drawn) [L5, N-[4-(hydroxymethyl)phenyl]-N’-[(2-hydroxy-2-phenyl)ethyl]-imidazolium bromide] |  |  |  |  |  |  | IC50 ([1]; Homo sapiens, HEK293): > 200 µM; IC50 ([2]; Homo sapiens, HeLa): > 200 µM; IC50 ([3]; Homo sapiens, MDA-MB-231, 72 h): > 200 µM; IC50 ([4]; Homo sapiens, MCF7, 72 h): > 200 µM; IC50 ([5]; Homo sapiens, Ishikawa): > 200 µM; IC50 ([6]; Homo sapiens, MCF-10A): > 200 µM
10 | OC(Cn1cc[n+](CC(O)c2ccccc2)[c]1[Ag-][c]1n(CC(O)c2ccccc2)cc[n+]1CC(O)c1ccccc1)c1ccccc1.[I][Ag-][I] (mixture of isomers) [AgL6] | > 200 | 47.7 ± 0.4 | 57.9 ± 0.5 | 29.7 ± 0.3 | 26.7 ± 0.5 | 143.4 ± 0.8 | 
11 | CC(=O)O[C@H]1C(=O)[C@@]2(C)[C@H]([C@H](OC(=O)c3ccccc3)[C@]3(O)C[C@H](OC(=O)[C@H](O)[C@@H](NC(=O)c4ccccc4)c4ccccc4)C(C)=C1C3(C)C)[C@]1(OC(C)=O)CO[C@@H]1C[C@@H]2O [paclitaxel] |  |  |  |  |  |  | effect on microtubule network, MDA-MB-231 [7]: microtubules non-reversible polymerization; effect on microtubule network, HeLa [8]: microtubules non-reversible polymerization; final optical density value at 350 nm (OD350) ([9]; 37 °C): about 0.51
12 | C[n+]1ccn(CC(O)c2ccccc2)[c]1[Au-][c]1n(CC(O)c2ccccc2)cc[n+]1C.[Cl][Au-][Cl] (racemic) [AuL3] |  |  | 3.43 ± 1 |  |  |  | 
13 | C[n+]1cn(CC(O)c2ccccc2)c(Cl)c1Cl (stereo not drawn) [L7] | > 200 | > 200 | > 200 | > 200 | > 200 | > 200 | 
14 | C[n+]1c(Cl)c(Cl)n(CC(O)c2ccccc2)[c]1[Ag-][c]1n(CC(O)c2ccccc2)c(Cl)c(Cl)[n+]1C.[I][Ag-][I] (racemic) [AgL7, bis-[4,5-dichloro-(N-methyl-N’(2-hydroxy-2-phenyl)ethyl-imidazole-2-ylidene]silver(I)]^+[di-iodide-silver]^−] | > 200 | 9.76 ± 0.6 | 3.22 ± 1.2 | 10.5 ± 0.8 | 6.55 ± 0.9 | > 200 | 
15 | OC(Cn1cc[n+](CC(O)c2ccccc2)c1)c1ccccc1 (stereo not drawn) [L6] |  |  |  |  |  |  | IC50 ([1]; Homo sapiens, HEK293): > 200 µM; IC50 ([2]; Homo sapiens, HeLa): > 200 µM; IC50 ([3]; Homo sapiens, MDA-MB-231, 72 h): > 200 µM; IC50 ([4]; Homo sapiens, MCF7, 72 h): > 200 µM; IC50 ([5]; Homo sapiens, Ishikawa): > 200 µM; IC50 ([6]; Homo sapiens, MCF-10A): > 200 µM
